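96-well plates; 48 h exposure; 5 concentrations. Endpoints by linear interpolation between flanking doses. Not reached: highest tested concentration assigned. GI50 is the concentration that inhibits growth by half. Definition used: TGI = concentration required for complete inhibition of growth.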
Key:
Test in all cases: NCI tumour cell line growth inhibition, 48 h
A498 renal = tested on: A498 renal
DU-145 prostate = tested on: DU-145 prostate
HOP-92 NSCLC = tested on: HOP-92 NSCLC
K-562 leukemia = tested on: K-562 leukemia
LOX IMVI melanoma = tested on: LOX IMVI melanoma
MOLT-4 leukemia = tested on: MOLT-4 leukemia
NCI-H460 lung = tested on: NCI-H460 lung
SR leukemia = tested on: SR leukemia
UO-31 renal = tested on: UO-31 renal
SK-MEL-2 melanoma = tested on: SK-MEL-2 melanoma

## C=CCc1c(Cl)nc(Cl)nc1Cl
A498 renal
  TGI: 3.49 µM
DU-145 prostate
  TGI: 4.86 µM
HOP-92 NSCLC
  TGI: 0.749 µM
K-562 leukemia
  TGI: 0.125 µM
LOX IMVI melanoma
  TGI: 0.344 µM
MOLT-4 leukemia
  TGI: 0.0625 µM
NCI-H460 lung
  TGI: 3.55 µM
SR leukemia
  TGI: > 100 µM
UO-31 renal
  TGI: 0.165 µM

## O=C(O)c1nc(NCc2nc3cc(Cl)ccc3o2)n[nH]1
A498 renal
  GI50: > 100 µM
  TGI: > 100 µM
DU-145 prostate
  GI50: > 100 µM
  TGI: > 100 µM
K-562 leukemia
  GI50: > 100 µM
  TGI: > 100 µM
LOX IMVI melanoma
  GI50: > 100 µM
  TGI: > 100 µM
MOLT-4 leukemia
  GI50: > 100 µM
  TGI: > 100 µM
NCI-H460 lung
  GI50: > 100 µM
  TGI: > 100 µM
SK-MEL-2 melanoma
  GI50: > 100 µM
  TGI: > 100 µM
SR leukemia
  GI50: > 100 µM
  TGI: > 100 µM
UO-31 renal
  GI50: > 100 µM
  TGI: > 100 µM

## Cc1cc2c(C)nn(Cc3ccccc3)c2c(C(=O)O)c1C
HOP-92 NSCLC
  TGI: > 100 µM
LOX IMVI melanoma
  TGI: > 100 µM
MOLT-4 leukemia
  TGI: > 100 µM
SK-MEL-2 melanoma
  TGI: > 100 µM
SR leukemia
  TGI: > 100 µM
UO-31 renal
  TGI: > 100 µM

## O=c1cc(-c2cccs2)[nH]c2cc3c(cc12)OCO3
A498 renal
  TGI: 16.2 µM
HOP-92 NSCLC
  TGI: > 100 µM
K-562 leukemia
  TGI: > 100 µM
LOX IMVI melanoma
  TGI: > 100 µM
MOLT-4 leukemia
  TGI: > 100 µM
NCI-H460 lung
  TGI: > 39.1 µM
SK-MEL-2 melanoma
  TGI: > 48 µM
SR leukemia
  TGI: > 100 µM
UO-31 renal
  TGI: > 100 µM

## O=C(/C=C/c1ccccc1)Oc1cccc2cccnc12
HOP-92 NSCLC
  TGI: 81.6 µM
K-562 leukemia
  TGI: > 100 µM
LOX IMVI melanoma
  TGI: > 100 µM
MOLT-4 leukemia
  TGI: > 51.1 µM
NCI-H460 lung
  TGI: 35.4 µM
SR leukemia
  TGI: > 100 µM
UO-31 renal
  TGI: > 73 µM

## C1CSCCCSCCCSCCCSCCCSCCCSCCCSCCCSC1
A498 renal
  TGI: > 100 µM
DU-145 prostate
  TGI: > 100 µM
HOP-92 NSCLC
  TGI: > 100 µM
K-562 leukemia
  TGI: > 100 µM
LOX IMVI melanoma
  TGI: > 100 µM
MOLT-4 leukemia
  TGI: > 100 µM
NCI-H460 lung
  TGI: > 100 µM
SK-MEL-2 melanoma
  TGI: > 100 µM
UO-31 renal
  TGI: > 100 µM

## c1ccc(NN(Cc2cnccn2)c2ccccc2)cc1
A498 renal
  TGI: > 100 µM
DU-145 prostate
  TGI: > 100 µM
HOP-92 NSCLC
  TGI: 89.7 µM
K-562 leukemia
  TGI: > 100 µM
LOX IMVI melanoma
  TGI: > 100 µM
MOLT-4 leukemia
  TGI: > 100 µM
NCI-H460 lung
  TGI: > 100 µM
SK-MEL-2 melanoma
  TGI: > 100 µM
SR leukemia
  TGI: > 100 µM

## O=[N+]([O-])c1ccccc1N=Nc1c(O)[nH]c2cccc(C(F)(F)F)c12
A498 renal
  TGI: > 100 µM
DU-145 prostate
  TGI: > 100 µM
K-562 leukemia
  TGI: > 100 µM
LOX IMVI melanoma
  TGI: > 100 µM
MOLT-4 leukemia
  TGI: > 100 µM
NCI-H460 lung
  TGI: > 100 µM
SK-MEL-2 melanoma
  TGI: > 100 µM
SR leukemia
  TGI: 15.7 µM
UO-31 renal
  TGI: > 100 µM

## C[C@@H](NC(C#N)c1ccco1)c1ccccc1 (stereo partly specified)
A498 renal
  TGI: > 100 µM
DU-145 prostate
  TGI: > 100 µM
HOP-92 NSCLC
  TGI: > 100 µM
K-562 leukemia
  TGI: > 100 µM
MOLT-4 leukemia
  TGI: > 100 µM
NCI-H460 lung
  TGI: > 100 µM
SR leukemia
  TGI: > 100 µM
UO-31 renal
  TGI: > 100 µM

## Clc1ccc(-c2cn3ccnc3c(-c3ccc(Cl)cc3)n2)cc1
A498 renal
  GI50: 30.7 µM
  TGI: 77.2 µM
DU-145 prostate
  GI50: 25.3 µM
  TGI: > 100 µM
HOP-92 NSCLC
  GI50: 15.1 µM
  TGI: > 100 µM
K-562 leukemia
  GI50: 2.25 µM
  TGI: > 100 µM
LOX IMVI melanoma
  GI50: 12.7 µM
  TGI: 31.5 µM
MOLT-4 leukemia
  GI50: 0.462 µM
  TGI: > 100 µM
NCI-H460 lung
  GI50: 19.9 µM
  TGI: > 100 µM
SK-MEL-2 melanoma
  GI50: 61.9 µM
  TGI: > 100 µM
SR leukemia
  TGI: 4.02 µM

## Cc1ccc2cnc(N)c(C#Cc3cc(C(=O)Nc4ccc(CN5CCN(C)CC5)c(C(F)(F)F)c4)cnc3C)c2c1
A498 renal
  GI50: 0.837 µM
  TGI: 1.57 µM
DU-145 prostate
  GI50: 0.531 µM
  TGI: 1.14 µM
HOP-92 NSCLC
  GI50: 0.217 µM
  TGI: 1.64 µM
K-562 leukemia
  GI50: 0.005 µM
  TGI: 1.26 µM
LOX IMVI melanoma
  GI50: 0.183 µM
  TGI: 0.808 µM
NCI-H460 lung
  GI50: 0.604 µM
  TGI: 1.34 µM
SK-MEL-2 melanoma
  GI50: 0.761 µM
  TGI: 1.73 µM
SR leukemia
  GI50: 0.39 µM
  TGI: 1.61 µM
UO-31 renal
  GI50: 0.621 µM
  TGI: 1.3 µM

## Nc1ncnc2c1ncn2C1OC(CSCC(F)(F)F)C(O)C1O (stereo unspecified)
HOP-92 NSCLC
  TGI: > 100 µM
K-562 leukemia
  TGI: > 100 µM
LOX IMVI melanoma
  TGI: > 100 µM
MOLT-4 leukemia
  TGI: > 100 µM
NCI-H460 lung
  TGI: > 100 µM
SK-MEL-2 melanoma
  TGI: > 100 µM
SR leukemia
  TGI: > 100 µM
UO-31 renal
  TGI: > 100 µM

## Cc1nc(C(N)=O)c(N)n1CCN1CCN(C(=O)CCCCCCCCCCNC2N=CNc3nc[nH]c32)CC1 (stereo unspecified)
A498 renal
  TGI: > 100 µM
HOP-92 NSCLC
  TGI: > 100 µM
K-562 leukemia
  TGI: > 100 µM
LOX IMVI melanoma
  TGI: > 100 µM
MOLT-4 leukemia
  TGI: 47.6 µM
NCI-H460 lung
  TGI: > 100 µM
SK-MEL-2 melanoma
  TGI: 44.5 µM
SR leukemia
  TGI: 43.3 µM
UO-31 renal
  TGI: > 100 µM

## CCCN1C(=O)NC(=O)C(CC)(N2C(=O)c3c(F)c(F)c(F)c(F)c3C2=O)C1=O (stereo unspecified)
A498 renal
  GI50: 3.93 µM
  TGI: 11.6 µM
DU-145 prostate
  GI50: 1.7 µM
  TGI: 3.27 µM
HOP-92 NSCLC
  GI50: 1.68 µM
  TGI: 3.37 µM
K-562 leukemia
  GI50: 1.73 µM
  TGI: 4.55 µM
LOX IMVI melanoma
  GI50: 1.66 µM
  TGI: 4.34 µM
MOLT-4 leukemia
  GI50: 2.71 µM
  TGI: 8.65 µM
NCI-H460 lung
  GI50: 2.24 µM
  TGI: 5.71 µM
SK-MEL-2 melanoma
  GI50: 2.95 µM
  TGI: 8.32 µM
UO-31 renal
  GI50: 1.63 µM
  TGI: 4.32 µM

## N#CC(N)=Nc1ccccc1
A498 renal
  TGI: > 100 µM
HOP-92 NSCLC
  TGI: > 100 µM
K-562 leukemia
  TGI: > 100 µM
LOX IMVI melanoma
  TGI: > 100 µM
MOLT-4 leukemia
  TGI: > 100 µM
NCI-H460 lung
  TGI: > 100 µM
SK-MEL-2 melanoma
  TGI: > 100 µM
SR leukemia
  TGI: > 100 µM
UO-31 renal
  TGI: > 100 µM

## COC(=O)C1=CO[C@@H](OC2CC(CO)C(O)C(O)C2O)[C@@H]2[C@@H](C)[C@@H](OC(=O)/C=C/c3ccccc3)[C@@H](O)[C@H]12 (stereo partly specified) (tested in a mixture with another compound)
A498 renal
  TGI: > 100 µM
HOP-92 NSCLC
  TGI: > 100 µM
K-562 leukemia
  TGI: > 100 µM
LOX IMVI melanoma
  TGI: > 100 µM
MOLT-4 leukemia
  TGI: > 100 µM
SR leukemia
  TGI: > 100 µM
UO-31 renal
  TGI: > 100 µM

## O=C1CC(CC(=O)C2CCCCC2=O)C(=O)N1 (stereo unspecified)
A498 renal
  TGI: > 100 µM
HOP-92 NSCLC
  TGI: > 100 µM
K-562 leukemia
  TGI: > 100 µM
LOX IMVI melanoma
  TGI: > 100 µM
NCI-H460 lung
  TGI: > 100 µM
SR leukemia
  TGI: > 100 µM
UO-31 renal
  TGI: > 100 µM

## Oc1cccc(Nc2nc3ccccc3c3occc23)c1
DU-145 prostate
  GI50: 12.2 µM
  TGI: 24.6 µM
HOP-92 NSCLC
  GI50: 9.07 µM
  TGI: 21.3 µM
K-562 leukemia
  GI50: 4.81 µM
  TGI: 55.8 µM
LOX IMVI melanoma
  GI50: 3.25 µM
  TGI: 22.4 µM
NCI-H460 lung
  GI50: 6.13 µM
  TGI: 20.2 µM
SK-MEL-2 melanoma
  GI50: 13.2 µM
  TGI: 27.7 µM
SR leukemia
  GI50: 1.38 µM
  TGI: 18.8 µM
UO-31 renal
  GI50: 10.5 µM
  TGI: 22.2 µM

## CC(=O)c1c(O)c(C)c(O)c(Cc2c(O)c3c(c(C(=O)/C=C/c4ccccc4)c2O)OC(C)(C)C=C3)c1O
A498 renal
  TGI: 6.71 µM
DU-145 prostate
  TGI: 41.1 µM
HOP-92 NSCLC
  TGI: 6.08 µM
K-562 leukemia
  TGI: 14.7 µM
LOX IMVI melanoma
  TGI: 14.3 µM
MOLT-4 leukemia
  TGI: 16.8 µM
NCI-H460 lung
  TGI: 16.4 µM
SK-MEL-2 melanoma
  TGI: 4.09 µM
UO-31 renal
  TGI: 8.19 µM

## COC(=O)/C(=N\NC(C)(C)C)C(C(=O)OC)C(=O)C(=O)Nc1cc(Cl)ccc1Cl (stereo unspecified)
A498 renal
  TGI: > 100 µM
HOP-92 NSCLC
  TGI: > 100 µM
K-562 leukemia
  TGI: > 100 µM
LOX IMVI melanoma
  TGI: > 100 µM
MOLT-4 leukemia
  TGI: > 100 µM
NCI-H460 lung
  TGI: > 100 µM
SK-MEL-2 melanoma
  TGI: > 100 µM
SR leukemia
  TGI: > 100 µM
UO-31 renal
  TGI: > 100 µM

Reference: PubChem BioAssay (NCI)
